Measured values published in patent publication US12673954B2 (BRISTOL-MYERS SQUIBB COMPANY, priority 2021, dated 2026).
Like-named read-outs stand apart in the source and are kept apart here.

Tests used:
[1] = tested on: IRF pathway, THP1-Dual™ cells; experiment: STING reporter assay in THP1-Dual cells, IRF pathway (Lucia luciferase, QUANTI-Luc); type: cell-based, human; conditions: THP1-Dual cells, 10% human plasma, 20 hours, Lucia luciferase, 100% activation = 100 μM cGAMP, read-out: IRF (EC50 μM)
Procedure, shortened: (§1)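 Activation normalised between DMSO-only baseline and 100 μM cGAMP maximum, after 20 h compound exposure (starting at 100 μM final) at 37° C, 5% CO2. Supernatant SEAP (QUANTI-Blue, OD620) reports NF-κB; secreted luciferase (QUANTI-Luc, RLU at 5 min) reports IRF.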

[2] = tested on: NF-κB pathway, THP1-Dual™ cells; experiment: STING reporter assay in THP1-Dual cells, NF-κB pathway (SEAP, QUANTI-Blue); type: cell-based, human; conditions: THP1-Dual cells, 10% human plasma, 20 hours, SEAP, 100% activation = 100 μM cGAMP, read-out: NFkB (EC50 μM)
Procedure, shortened: as §1

Structure (SMILES)	EC50 ([1]; Homo sapiens, THP1-Dual, 20 h) [µM]	EC50 ([2]; Homo sapiens, THP1-Dual, 20 h) [µM]	EC50 [1] [µM]	EC50 [2] [µM]
CCOC(=O)c1c(C)ccc2cc(CNC(=O)c3cnn4cccnc34)oc12 [EXAMPLE 379, Ethyl 6-methyl-2-((pyrazolo[1,5-a]pyrimidine-3-carboxamido)methyl)benzofuran-7-carboxylate]	13	19	–	–
COC(=O)c1cc(Cl)cc2cc(Cn3ccc4ncncc4c3=O)oc12 [Example 75, Methyl 5-chloro-2-((5-oxopyrido[4,3-d]pyrimidin-6(5H)-yl)methyl)benzofuran-7-carboxylate]	22	37	–	–
COC(=O)c1c(O)c(Cl)cc2cc(CNC(=O)c3cnn4cccnc34)oc12 [EXAMPLE 127, Methyl 5-chloro-6-hydroxy-2-((pyrazolo[1,5-a]pyrimidine-3-carboxamido)methyl)benzofuran-7-carboxylate]	4.7	5.6	–	–
CSC(=O)c1cc(C)cc2cc(CNC(=O)c3cnn4cccnc34)oc12 [EXAMPLE 391, S-Methyl 5-methyl-2-((pyrazolo[1,5-a]pyrimidine-3-carboxamido)methyl)benzofuran-7-carbothioate]	0.75	0.61	–	–
O=C(Cc1cc(F)cc2cc(CNC(=O)c3cnn4cccnc34)oc12)OCC(F)(F)F [EXAMPLE 366, 2,2,2-Trifluoroethyl 2-(5-fluoro-2-((pyrazolo[1,5-a]pyrimidine-3-carboxamido)methyl)benzofuran-7-yl)acetate]	4	4	–	–
O=C(OCC(F)(F)F)c1cc(F)cc2cc(Cn3cnc4ccncc4c3=O)oc12 [EXAMPLE 363, 2,2,2-Trifluoroethyl 5-fluoro-2-((4-oxopyrido[4,3-d]pyrimidin-3(4H)-yl)methyl)benzofuran-7-carboxylate]	3.5	3.2	–	–
O=C(OC1COC1)c1cc(F)cc2cc(CNC(=O)c3cnn4cccnc34)oc12 [EXAMPLE 233, Oxetan-3-yl 5-fluoro-2-((pyrazolo[1,5-a]pyrimidine-3-carboxamido)methyl)benzofuran-7-carboxylate]	1.7	2	–	–
COC(OC(=O)c1cc(Br)cc2cc(CNC(=O)c3cnn4cccnc34)oc12)C(F)(F)F (single isomer, unassigned) [EXAMPLE 339, 2,2,2-Trifluoro-1-methoxyethyl 5-bromo-2-((pyrazolo[1,5-a]pyrimidine-3-carboxamido)methyl)benzofuran-7-carboxylate]	1.8	1.4	–	–
O=C(OC(C(F)(F)F)C(F)(F)F)c1cccc2cc(CN3CCc4ccncc4C3=O)oc12 [EXAMPLE 209]	18	19	–	–
O=C(OC(C(F)(F)F)C(F)(F)F)c1cc(F)cc2cc(CNC(=O)c3cnn4cccnc34)oc12 [EXAMPLE 238, 1,1,1,3,3,3-Hexafluoropropan-2-yl 5-fluoro-2-((pyrazolo[1,5-a]pyrimidine-3-carboxamido)methyl)benzofuran-7-carboxylate]	1.6	1.7	–	–
CC(OC(=O)c1cc(Br)cc2cc(CNC(=O)c3cnn4cccnc34)oc12)C(F)(F)F (single isomer, unassigned) [EXAMPLE 342, 1,1,1-Trifluoropropan-2-yl 5-bromo-2-((pyrazolo[1,5-a]pyrimidine-3-carboxamido)methyl)benzofuran-7-carboxylate]	–	–	7.2	6
Cc1cc(C(=O)OCC(F)(F)F)c2oc(CNC(=O)c3cnn4cccnc34)c(Cl)c2c1 [EXAMPLE 299, 2,2,2-Trifluoroethyl 3-chloro-5-methyl-2-((pyrazolo[1,5-a]pyrimidine-3-carboxamido)methyl)benzofuran-7-carboxylate]	0.28	0.33	–	–
C=Cc1c(CNC(=O)c2cnn3cccnc23)oc2c(C(=O)OC)cc(C)cc12 [EXAMPLE 124, Methyl 5-methyl-2-((pyrazolo[1,5-a]pyrimidine-3-carboxamido)methyl)-3-vinylbenzofuran-7-carboxylate]	5.7	6.7	–	–
CC(OC(=O)c1cc(Cl)cc2cc(CNC(=O)c3cnn4cccnc34)oc12)C(F)(F)F (single isomer, unassigned) [EXAMPLE 330, 1,1,1-Trifluoropropan-2-yl 5-chloro-2-((pyrazolo[1,5-a]pyrimidine-3-carboxamido)methyl)benzofuran-7-carboxylate]	–	–	4.7	5.5
CSC(=O)c1cc(F)cc2c(Cl)c(CNC(=O)c3cnn4cccnc34)oc12 [EXAMPLE 393, S-Methyl 3-chloro-5-fluoro-2-((pyrazolo[1,5-a]pyrimidine-3-carboxamido)methyl)benzofuran-7-carbothioate]	0.39	0.3	–	–
COC(=O)c1cc(Cl)cc2c(Cl)c(CNC(=O)c3cncc4cccnc34)oc12 [EXAMPLE 113, methyl 2-((1,6-naphthyridine-8-carboxamido)methyl)-3,5-dichlorobenzofuran-7-carboxylate]	0.32	0.51	–	–
CC(OC(=O)c1cc(F)cc2cc(CNC(=O)c3cnc4cccnn34)oc12)C(F)(F)F (single isomer, unassigned) [EXAMPLE 315, 1,1,1-Trifluoropropan-2-yl 5-fluoro-2-((imidazo[1,2-b]pyridazine-3-carboxamido)methyl)benzofuran-7-carboxylate]	–	–	2.1	1.9
O=C(OC(CF)CF)c1cc(F)cc2cc(CNC(=O)c3cnn4cccnc34)oc12 [EXAMPLE 237, 1,3-Difluoropropan-2-yl 5-fluoro-2-((pyrazolo[1,5-a]pyrimidine-3-carboxamido)methyl)benzofuran-7-carboxylate]	1.2	1.2	–	–
Cc1cc(C(=O)OC(CF)CF)c2oc(CNC(=O)c3cnn4cccnc34)cc2c1 [EXAMPLE 274, 1,3-Difluoropropan-2-yl 5-methyl-2-((pyrazolo[1,5-a]pyrimidine-3-carboxamido)methyl)-benzofuran-7-carboxylate]	0.8	0.83	–	–
COC(=O)c1cc(C)cc2c(Cl)c(CNC(=O)c3cnn4cc(C)cnc34)oc12 [EXAMPLE 119, Methyl 3-chloro-5-methyl-2-((6-methylpyrazolo[1,5-a]pyrimidine-3-carboxamido)methyl)benzofuran-7-carboxylate]	2.6	2.6	–	–
CC(OC(=O)c1cc(F)cc2cc(Cn3cnc4ccncc4c3=O)oc12)C(F)(F)F (stereo not drawn) [EXAMPLE 364, 1,1,1-Trifluoropropan-2-yl 5-fluoro-2-((4-oxopyrido[4,3-d]pyrimidin-3(4H)-yl)methyl)benzofuran-7-carboxylate]	–	–	35	21
COC(OC(=O)c1cc(C)cc2cc(CNC(=O)c3cnn4cccnc34)oc12)C(F)(F)F (single isomer, unassigned) [EXAMPLE 344, 2,2,2-Trifluoro-1-methoxyethyl 5-methyl-2-((pyrazolo[1,5-a]pyrimidine-3-carboxamido)methyl)benzofuran-7-carboxylate]	–	–	0.63	0.76
COC(=O)c1cccc2cc(Cn3ccc4[nH]ncc4c3=O)oc12 [EXAMPLE 19, Methyl 2-({4-oxo-1H,4H,5H-pyrazolo[4,3-c]pyridin-5-yl}methyl)-1-benzofuran-7-carboxylate]	47	95	–	–
C[C@H](NC(=O)c1cnn2cccnc12)c1oc2c(C(=O)O[C@H](C)C(F)(F)F)cc(Cl)cc2c1Cl [EXAMPLE 296, (R)-1,1,1-Trifluoropropan-2-yl 3,5-dichloro-2-((S)-1-(pyrazolo[1,5-a]pyrimidine-3-carboxamido)ethyl)benzofuran-7-carboxylate]	5.7	4.6	–	–
CCOc1ncncc1C(=O)NCc1cc2cc(C)cc(C(=O)OC)c2o1 [Example 95, Methyl 2-((4-ethoxypyrimidine-5-carboxamido)methyl)-5-methylbenzofuran-7-carboxylate]	13	16	–	–
COc1ccn2ncc(C(=O)NCc3cc4cc(Cl)cc(C(=O)OC(C)C(F)(F)F)c4o3)c2n1 (single isomer, unassigned) [EXAMPLE 368, 1,1,1-Trifluoropropan-2-yl 5-chloro-2-((5-methoxypyrazolo[1,5-a]pyrimidine-3-carboxamido)methyl)benzofuran-7-carboxylate]	11	11	–	–
CCOC(OC(=O)c1cccc2cc(CN3CCc4ccncc4C3=O)oc12)C(F)(F)F (racemic) [EXAMPLE 210, 1-Ethoxy-2,2,2-trifluoroethyl 2-((1-oxo-3,4-dihydro-2,7-naphthyridin-2(1H)-yl)methyl)benzofuran-7-carboxylate]	30	25	–	–
O=C(Oc1ccccc1)c1cc(Cl)cc2cc(CNC(=O)c3cnn4cccnc34)oc12 [EXAMPLE 254, Phenyl 5-chloro-2-((pyrazolo[1,5-a]pyrimidine-3-carboxamido)methyl)benzofuran-7-carboxylate]	0.87	0.88	–	–
CSC(=O)c1cc(F)cc2cc([C@H](C)NC(=O)c3cnn4cccnc34)oc12 [EXAMPLE 399, S-Methyl (S)-5-fluoro-2-(1-(pyrazolo[1,5-a]pyrimidine-3-carboxamido)ethyl)benzofuran-7-carbothioate]	1.3	1.5	–	–
COC(=O)c1cccc2cc(Cn3ccc4ccncc4c3=O)oc12 [EXAMPLE 7, Methyl 2-((1-oxo-2,7-naphthyridin-2(1H)-yl)methyl)benzofuran-7-carboxylate]	4.3	4.1	–	–
